From patent publication US10568879B2 (GALAPAGOS NV, priority 2015, dated 2020)
Like-named read-outs stand apart in the source and are kept apart here.

Legend:
GPR84 = target: T1, GPR84 (Homo sapiens, UniProt Q9NQS5); experiment: GPR84 [35S]GTPγS binding assay; format: biochemical; conditions: 3,3′-diindolylmethane at EC80; membranes from stable cell line over expressing GPR84
T1 construct: expressed in transfected cells
Outline: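 Antagonist-mode [35S]GTPγS binding on membranes from a GPR84-overexpressing stable line (GDP-preincubated), stimulated with 3,3′-diindolylmethane at EC80. Buffer 20 mM Tris pH 7.5, 5 mM MgCl2, 250 mM NaCl, saponin; 0.1 nM [35S]GTPγS, 90 min at room temperature, SPA bead read-out.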

human neutrophils = experiment: Human neutrophil migration assay; format: cell-based; conditions: for IC50: Homo sapiens, Neutrophil, read-out: Human neutrophil migration IC50
Protocol: The activity of GPR84 agonists and antagonists can therefore be assayed in a human neutrophil migration assay. The human neutrophil migration assay makes use of freshly isolated human neutrophils from buffy coats that are subsequently used in a functional chemotaxis assay setup. […] After 1 h of incubation at 37° C. and 5% CO2, the number of migrated neutrophils in the lower compartment can be quantified by measuring the ATP content using ATPlite™ Luminescence Assay System. A human buffy coat suspension is diluted with an equal volume of ice cold DPBS. 20 mL of the diluted buffy coat suspension is gently mixed with 4 mL of ACD buffer (140 mM citric acid, 200 mM sodium citrate and 220 mM dextrose). Then, 12 mL of a 6% dextran/0.9% NaCl solution (15 g dextran T2000 and 2.25 g NaCl dissolved in 250 mL H2O) is added to the mixture and the samples are inverted gently up to 20 times. The total volume is transferred to a new recipient and incubated at room temperature to allow sedimentation of red blood cells. The yellowish upper fraction is then transferred to a clean centrifugation tube and centrifuged for 12 min at 1300 rpm and 4° C. After centrifugation, the supernatant is discarded and the remaining cell pellet is rapidly resuspended in 12 mL of ice-cold H2O to perform a red blood cell lysis by osmotic burst. After 20 seconds, 4 mL of ice-cold 0.6 M KCl is added to restore salt concentration. Samples are mixed carefully and centrifuged for 6 min at 1300 rpm and 4° C. The supernatant is discarded and the red blood cell lysis procedure is repeated one more time. […] A neutrophil cell suspension of 8.9×10^6 cells per mL is prepared in chemotaxis buffer and 180 μL per well is plated in a 96-well V-bottom plate. 20 μL of test compound solution in chemotaxis buffer is added to the 180 μL cell suspension. The mixture is incubated at room temperature for 30 min with intermediate gentle resuspension of the cells after 15 min. […] After 1 h at 37° C., 5% CO2 in a humidified incubator, the upper plate of the Transwell® system is gently removed. […] After incubation, 270 μL of cell lysate is then transferred onto a white 96-well plate for quantification by a luminescence plate reader. The relative luminescent signal measured is considered linearly related to the number of cells having migrated from the upper compartment into the receiver well.

[1] = embelin at EC80 as chemotactic agent, 1 h at 37° C.

T1 sequence (Q9NQS5 whole entry): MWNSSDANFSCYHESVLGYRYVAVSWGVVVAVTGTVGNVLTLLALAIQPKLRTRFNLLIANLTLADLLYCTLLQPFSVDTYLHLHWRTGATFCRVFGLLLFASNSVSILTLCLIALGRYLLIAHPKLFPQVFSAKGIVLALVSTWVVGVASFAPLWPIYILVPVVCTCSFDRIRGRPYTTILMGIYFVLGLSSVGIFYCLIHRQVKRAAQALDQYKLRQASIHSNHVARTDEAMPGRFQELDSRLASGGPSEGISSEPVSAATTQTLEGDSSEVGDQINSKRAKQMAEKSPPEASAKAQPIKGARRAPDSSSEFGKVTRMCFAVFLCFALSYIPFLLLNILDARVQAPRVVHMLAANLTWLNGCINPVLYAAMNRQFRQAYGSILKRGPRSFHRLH

Q: What does the source list for `COc1cc2c(cc1OC)-c1cc(=O)cc(NCC3CCCO3)n1CC2` (stereo not drawn) [Compound 4, 9,10-Dimethoxy-4-[(tetrahydro-furan-2-ylmethyl)-amino]-6,7-dihydro-pyrido[2,1-a]isoquinolin-2-one]?
A: IC50 (GPR84): > 1000 nM; IC50 (human neutrophils; [1]): > 1000 nM

Q: Which results are given for `COc1cc2c(cc1OC)-c1c(C)c(=O)cc(NC[C@@H]3COCCO3)n1CC2` [Compound 6, 4-[[(2R)-1,4-dioxan-2-yl]methylamino]-9,10-dimethoxy-1-methyl-6,7-dihydrobenzo[a]quinolizin-2-one]?
A: IC50 (GPR84): 500 to 1000 nM; IC50 (human neutrophils; [1]): > 1000 nM

Q: What does the source list for `Cc1c2n(c(NCC3CCCO3)cc1=O)CCc1cc(OCC3CC3(F)F)ccc1-2` (stereo not drawn) [Compound 7, 9-(2,2-Difluoro-cyclopropylmethoxy)-1-methyl-4-[(tetrahydro-furan-2-ylmethyl)-amino]-6,7-dihydro-pyrido[2,1-a]isoquinolin-2-one]?
A: IC50 (GPR84): 0.01 to 100 nM; IC50 (human neutrophils; [1]): 100 to 500 nM

Q: What does the source list for `Cc1c2n(c(NCC3CCCO3)cc1=O)CCc1cc(OC3CCCO3)ccc1-2` (stereo not drawn) [Compound 9, -Methyl-4-[(tetrahydro-furan-2-ylmethyl)-amino]-9-(tetrahydro-furan-2-yloxy)-6,7-dihydro-pyrido[2,1-a]isoquinolin-2-one]?
A: IC50 (GPR84): 100 to 500 nM; IC50 (human neutrophils; [1]): 100 to 500 nM

Q: For `Cc1c2n(c(NCC3CCCCO3)cc1=O)CCc1cc(OCC(F)F)ccc1-2` (stereo not drawn) [Compound 13, 9-(2,2-difluoroethoxy)-1-methyl-4-(tetrahydropyran-2-ylmethylamino)-6,7-dihydrobenzo[a]quinolizin-2-one], which IC50 (GPR84) is on record?
A: 100 to 500 nM

Q: What about the IC50 (human neutrophils; [1]) of the same compound?
A: 100 to 500 nM

Q: `Cc1c2n(c(NCC3CCCCO3)cc1=O)CCc1cc(OCC(F)(F)F)ccc1-2` (stereo not drawn) [Compound 14, 1-methyl-4-(tetrahydropyran-2-ylmethylamino)-9-(2,2,2-trifluoroethoxy)-6,7-dihydrobenzo[a]quinolizin-2-one] was tested. Which IC50 (GPR84) did it give?
A: 0.01 to 100 nM

Q: And the IC50 (human neutrophils; [1])?
A: 0.01 to 100 nM

Q: With `COc1ccc2c(c1OC)CCn1c(NCC3CCCCO3)cc(=O)c(C)c1-2` (stereo not drawn) [Compound 16, 8,9-dimethoxy-1-methyl-4-(tetrahydropyran-2-ylmethylamino)-6,7-dihydrobenzo[a]quinolizin-2-one] as the compound, how does the IC50 (GPR84) read?
A: 0.01 to 100 nM

Q: What about the IC50 (human neutrophils; [1]) of the same compound?
A: 100 to 500 nM

Q: Which IC50 (GPR84) does the source give for `COc1ccc2c(c1OC)CCn1c(NCC3COCCO3)cc(=O)c(C)c1-2` (stereo not drawn) [Compound 17, 4-(1,4-dioxan-2-ylmethylamino)-8,9-dimethoxy-1-methyl-6,7-dihydrobenzo[a]quinolizin-2-one] here?
A: 0.01 to 100 nM

Q: And the IC50 (human neutrophils; [1])?
A: 100 to 500 nM

Q: With `COc1ccc2c(c1OC)CCn1c(NCC3COCCO3)cc(=O)cc1-2` (stereo not drawn) [Compound 19, 4-(1,4-dioxan-2-ylmethylamino)-8,9-dimethoxy-6,7-dihydrobenzo[a]quinolizin-2-one] as the compound, how does the IC50 (GPR84) read?
A: 500 to 1000 nM

Q: And the IC50 (human neutrophils; [1])?
A: > 1000 nM

Q: `COc1ccc2c(c1OC)CCn1c(NCC3CCCO3)cc(=O)cc1-2` (stereo not drawn) [Compound 20, 8,9-dimethoxy-4-(tetrahydrofuran-2-ylmethylamino)-6,7-dihydrobenzo[a]quinolizin-2-one] was tested. Which IC50 (GPR84) did it give?
A: > 1000 nM

Q: What about the IC50 (human neutrophils; [1]) of the same compound?
A: > 1000 nM

Q: For `COc1c(O)ccc2c1CCn1c(NCC3COCCO3)cc(=O)cc1-2` (stereo not drawn) [Compound 21, 4-(1,4-dioxan-2-ylmethylamino)-9-hydroxy-8-methoxy-6,7-dihydrobenzo[a]quinolizin-2-one], which IC50 (GPR84) is on record?
A: > 1000 nM

Q: What about the IC50 (human neutrophils; [1]) of the same compound?
A: > 1000 nM

Q: For `COc1ccc2c(c1O)CCn1c(NCC3COCCO3)cc(=O)cc1-2` (stereo not drawn) [Compound 22, 4-(1,4-dioxan-2-ylmethylamino)-8-hydroxy-9-methoxy-6,7-dihydrobenzo[a]quinolizin-2-one], which IC50 (GPR84) is on record?
A: > 1000 nM

Q: And the IC50 (human neutrophils; [1])?
A: > 1000 nM

Q: For `COc1c(OCC(F)F)ccc2c1CCn1c(NCC3COCCO3)cc(=O)c(C)c1-2` (stereo not drawn) [Compound 23, 9-(2,2-Difluoro-ethoxy)-4-[([1,4]dioxan-2-ylmethyl)-amino]-8-methoxy-1-methyl-6,7-dihydro-pyrido[2,1-a]isoquinolin-2-one], which IC50 (GPR84) is on record?
A: 0.01 to 100 nM

Q: What about the IC50 (human neutrophils; 1 h) of the same compound?
A: 0.01 to 100 nM

Q: Which results are given for `COc1c(OCC(F)F)ccc2c1CCn1c(NCC3CCCO3)cc(=O)c(C)c1-2` (stereo not drawn) [Compound 24, 9-(2,2-Difluoro-ethoxy)-8-methoxy-1-methyl-4-[(tetrahydro-furan-2-ylmethyl)-amino]-6,7-dihydro-pyrido[2,1-a]isoquinolin-2-one]?
A: IC50 (GPR84): 0.01 to 100 nM; IC50 (human neutrophils; [1]): 100 to 500 nM

Q: What does the source list for `Cc1c2n(c(OC[C@@H]3COCCO3)cc1=O)CCc1cc(C#N)ccc1-2` [Compound 25, 4-[[(1S)-1,4-dioxan-2-yl]methoxy]-1-methyl-2-oxo-6,7-dihydrobenzo[a]quinolizine-9-carbonitrile]?
A: IC50 (GPR84): 500 to 1000 nM; IC50 (human neutrophils; [1]): > 1000 nM

Q: For `CCc1c2n(c(NCC3CCCO3)cc1=O)CCc1cc(OCC(F)F)ccc1-2` (stereo not drawn) [Compound 26, 9-(2,2-difluoroethoxy)-1-ethyl-4-(tetrahydrofuran-2-ylmethylamino)-6,7-dihydrobenzo[a]quinolizin-2-one], which IC50 (GPR84) is on record?
A: 500 to 1000 nM

Q: What about the IC50 (human neutrophils; [1]) of the same compound?
A: 500 to 1000 nM

Q: How did the IC50 (GPR84) turn out when `CCc1c2n(c(NCC3CCCO3)cc1=O)CCc1cc(OCC(F)(F)F)ccc1-2` (stereo not drawn) [Compound 27, 1-ethyl-4-(tetrahydrofuran-2-ylmethylamino)-9-(2,2,2-trifluoroethoxy)-6,7-dihydrobenzo[a]quinolizin-2-one] was run?
A: 500 to 1000 nM

Q: What about the IC50 (human neutrophils; [1]) of the same compound?
A: 100 to 500 nM

Q: `COc1ccc2c(c1OC)CCn1c(OCC3CCCO3)cc(=O)c(C)c1-2` (stereo not drawn) [Compound 28, 8,9-dimethoxy-1-methyl-4-(tetrahydrofuran-2-ylmethoxy)-6,7-dihydrobenzo[b]quinolizin-2-one] was tested. Which IC50 (GPR84) did it give?
A: 0.01 to 100 nM

Q: And the IC50 (human neutrophils; [1])?
A: 0.01 to 100 nM

Q: For `COc1ccc2c(c1OC)CCn1c(OCC3CCCCO3)cc(=O)c(C)c1-2` (stereo not drawn) [Compound 29, 8,9-dimethoxy-1-methyl-4-(tetrahydropyran-2-ylmethoxy)-6,7-dihydrobenzo[b]quinolizin-2-one], which IC50 (GPR84) is on record?
A: 0.01 to 100 nM

Q: What about the IC50 (human neutrophils; [1]) of the same compound?
A: 0.01 to 100 nM

Q: With `Cc1c2n(c(OC[C@@H]3COCCO3)cc1=O)CCc1cc(OCC3CCOCC3)ccc1-2` [Compound 30, 4-[[(2S)-1,4-dioxan-2-yl]methoxy]-1-methyl-9-(tetrahydropyran-4-ylmethoxy)-6,7-dihydrobenzo[b]quinolizin-2-one] as the compound, how does the IC50 (GPR84) read?
A: 0.01 to 100 nM

Q: What about the IC50 (human neutrophils; [1]) of the same compound?
A: 0.01 to 100 nM

Q: With `Cc1c2n(c(NC[C@@H]3COCCO3)cc1=O)CCc1cc(OCc3ccccc3)ccc1-2` [Compound 34, 9-benzyloxy-4-[[(2R)-1,4-dioxan-2-yl]methylamino]-1-methyl-6,7-dihydrobenzo[a]quinolizin-2-one] as the compound, how does the IC50 (human neutrophils; [1]) read?
A: 0.01 to 100 nM

Q: For `Cc1ccc(COc2ccc3c(c2)CCn2c(OC[C@@H]4COCCO4)cc(=O)c(C)c2-3)cn1` [Compound 52, 4-[[(2S)-1,4-dioxan-2-yl]methoxy]-1-methyl-9-[(6-methyl-3-pyridyl)methoxy]-6,7-dihydrobenzo[a]quinolizin-2-one], which IC50 (human neutrophils; [1]) is on record?
A: 0.01 to 100 nM

Q: With `Cc1c2n(c(OC[C@@H]3COCCO3)cc1=O)CCc1cc(N3CCN(C(=O)OC(C)(C)C)CC3)ccc1-2` [Compound 60, tert-butyl 4-[4-[[(2S)-1,4-dioxan-2-yl]methoxy]-1-methyl-2-oxo-6,7-dihydrobenzo[a]quinolizin-9-yl]piperazine-1-carboxylate] as the compound, how does the IC50 (human neutrophils; [1]) read?
A: 0.01 to 100 nM

Q: Which IC50 (human neutrophils; [1]) does the source give for `Cc1c2n(c(OC[C@@H]3COCCO3)cc1=O)CCc1cc(C3CN(C(=O)OC(C)(C)C)C3)ccc1-2` [Compound 71, tert-butyl 3-[4-[[(2S)-1,4-dioxan-2-yl]methoxy]-1-methyl-2-oxo-6,7-dihydrobenzo[a]quinolizin-9-yl]azetidine-1-carboxylate] here?
A: 0.01 to 100 nM

Q: With `Cc1c2n(c(OC[C@@H]3COCCO3)cc1=O)CCc1cc(OCCOC(F)(F)F)ccc1-2` [Compound 72, 4-[[(2S)-1,4-dioxan-2-yl]methoxy]-1-methyl-9-[2-(trifluoromethoxy)ethoxy]-6,7-dihydrobenzo[a]quinolizin-2-one] as the compound, how does the IC50 (human neutrophils; [1]) read?
A: 0.01 to 100 nM

Q: How did the IC50 (human neutrophils; [1]) turn out when `Cc1c2n(c(OCC3COCCO3)cc1=O)CCc1cc(OCC(F)(F)F)ccc1-2` (stereo not drawn) [Compound 90, 4-(1,4-dioxan-2-ylmethoxy)-1-methyl-9-(2,2,2-trifluoroethoxy)-6,7-dihydrobenzo[a]quinolizin-2-one] was run?
A: 0.01 to 100 nM

Q: Which “neutrophil chemotaxis induced by GPR84 agonists” value (human neutrophils) does the source give for `CCCCCCCCCC(=O)[O-].[Na+]` [sodium decanoate, reference compound] here?
A: induce neutrophil chemotaxis

Q: With `CCCCCCCCCCC(=O)[O-].[Na+]` [sodium undecanoate, reference compound] as the compound, how does the “neutrophil chemotaxis induced by GPR84 agonists” value (human neutrophils) read?
A: induce neutrophil chemotaxis
